{"source": "paper PMC9503459", "about": "“Antifungal Activity, Structural Stability, and Immunomodulatory Effects on Human Immune Cells of Defensin from the Lentil Lens culinaris” (Membranes, 2022)", "key": {"[1]": {"system": "regulatory CD4+ FoxP3+ T cells (Tregs)", "assay": "Cytokine response by multiplex xMAP, Tregs", "type": "cell-based, human", "conditions": "CD4+CD25+ Tregs, 2 µM, 24 h", "experimental": "Colorectal adenocarcinoma Caco-2 cell line (ATCC HTB-37) was cultured in complete DMEM/F12 (1:1) medium containing 10% fetal bovine serum (FBS, Gibco) and 1X antibiotic-antimycotic solution (1XAAS, Invitrogen, Waltham, MA, USA). The acute monocytic leukemia THP-1 line (ATCC TIB-202) was cultured in complete RPMI-1640 medium, containing 10% FBS, 1XAAS, and […]. THP-1 cells were differentiated into pro-inflammatory macrophages (Mφ1) with phorbol 12-myristate 13-acetate (Sigma-Aldrich) for 24 h and subsequently polarized with lipopolysaccharide from E. coli (Sigma-Aldrich) and rhIFN-γ (Sigma-Aldrich) for another 48 h according to previously reported protocol. All cells were cultured in a humidified CO2 incubator (5% CO2, 37 °C). Primary peripheral blood mononuclear cells (PBMCs) collected from a healthy donor were purchased from American Type Culture Collection (ATCC PCS-800-011). CD4^+ T-helper and CD8^+ T cytotoxic cells were isolated from PBMCs by magnetic separation with mouse anti-human CD4-PE (clone 13B8.2, Beckman Coulter Diagnostics, Pasadena, CA, USA) and CD8-PE (clone REA734, Miltenyi Biotec, Bergisch Gladbach, Germany), Anti-PE MicroBeads (Miltenyi Biotec), and LS Separation Columns (Miltenyi Biotec). Isolated CD4^+ and CD8^+ cells were expanded separately with Dynabeads™ Human T-Expander CD3/CD28 (Gibco, Waltham, MA, USA) in RPMI-1640 supplemented with 10% FBS, 1XAAS and 100 U/mL rh-IL-2 (Gibco). Regulatory CD4^+ FoxP3^+ T cells (Tregs) were isolated from PBMCs by magnetic separation with CD4^+CD25^+ Regulatory T Cell Isolation Kit, human (Miltenyi Biotec). Primary CD14^+ blood monocytes were isolated from PBMCs by adherence according to standard technique. Monocyte-derived mature dendritic cells (moDCs) were obtained from CD14^+ blood monocytes according to the previously reported protocol. Briefly, blood monocytes were incubated in complete RPMI-1640 medium, containing 10% FBS, 1XAAS, 800 U/mL rhGM-CSF (Sci-Store, Russia, Moscow) and 500 U/mL rhIL-4 (Sci-Store) for 3 days. Fresh complete RPMI-1640 medium with rhGM-CSF and rhIL-4 was added to the culture on day 3. On day 5, fresh complete RPMI-1640 containing 100 U/mL rhTNF-α (Sigma) as well as 800 U/mL rhGM-CSF and 500 U/mL rhIL-4 was added and the culture was incubated for another 4 days until full maturation.\nCaco-2 cells were seeded into the wells of a 48-well plate, coated with 0.1% bovine collagen (Sigma-Aldrich) for 24 h, 3 weeks before the experiment with complete DMEM/F12 (1:1) medium renewal every 2–3 days. Monocytes, moDCs, CD4^+ T-helper and CD8^+ T cytotoxic cells, Mφ1, and Regulatory CD4^+ FoxP3^+ T cells were seeded into the wells of 48-well plates in the complete RPMI-1640 medium supplemented with 10% Human AB serum (HABS, Capricorn Scientific, Ebsdorfergrund, Germany) and 1XAAS 24 h prior to the experiment; medium in Caco-2-containing wells was also replaced with the same medium. After 24 h, half of the medium in each well was replaced by fresh complete RPMI-1640 medium with 10% HABS, supplemented with 4 µM of Lc-def for the sample wells or fresh medium alone for the control wells. Cell cultures were kept in CO2-incubator (5% CO2, 37 °C) for another 24 h. Culture supernatants were collected 24 h later and stored at −70 °C degrees less than one month prior to the analytes assessment. […]"}, "[2]": {"system": "proteolytic enzymes of Candida albicans", "assay": "Sensitivity to proteolytic enzymes of Candida albicans (cell lysate, SDS-PAGE)", "type": "in vitro ADME", "conditions": "C. albicans lysate 10^9 cells/mL, up to 72 h, SDS-PAGE", "experimental": "For study of Lc-def sensitivity to the clinical isolate of C. albicans, lysates of yeast cells in different concentration and pH were used basically as previously described for rhesus macaque θ-defensin 1 [22]. Cells were inoculated onto modified YPD medium and grown at 37 ℃ for 48 h before reaching the stationary phase of growth. Cells were harvested by centrifugation, washed two times in sterile phosphate buffered saline (PBS), pH 7.2, or sterile 40 mM sodium acetate, pH 4.0, and resuspended in the corresponding buffer to final concentrations of 1 × 10^9 cells/mL or 1 × 10^3 cells/mL. Two freeze-thaw cycles in liquid nitrogen were used for cell disruption, and supernatants were collected following centrifugation. Supernatants (12.5 μL) were mixed with water solutions (37.5 μL) of Lc-def, α-casein, Psd1, or LL-37 in concentration of 0.67 mg/mL and incubated at 37 ℃ for 72 or 24 h in the case of high or low cell concentration, respectively. To study the possible influence of Lc-def and Psd1 on the degradation process, supernatants (12.5 μL) were mixed with both α-casein or LL-37 in concentration of 1 mg/mL (25 μL) and Lc-def or Psd1 in concentration of 2 mg/mL (12.5 μL). As negative controls, α-casein and peptides were mixed with buffers as well as supernatants were mixed with water without the proteins. The samples were mixed with sample buffer without β-mercaptoethanol (BME), heated at 100 ℃ for 2 min, and analyzed by sodium dodecyl sulfate polyacrylamide gel electrophoresis (SDS-PAGE). Some independent experiments were performed in each case."}}, "note": "Values joined by “and” are separate entries in the source; they are usually repeats but may differ in a detail not shown here. Equal entries are not always repeated. No end group written: not given here.", "data": [{"substance": "Lc-def: defensin from lentil Lens culinaris seeds (UniProt:B3F051), recombinant, overexpressed in Escherichia coli (KTCENLSDSFKGPCIPDGNCNKHCKEKEHLLSGRCRDDFRCWCTRNC; disulfide (positions not given here); ends not checked; also: disulfide bonds present, pairing not given here; UniProt B3F051 28-74, looked up)", "values": [{"measurement": "EGF", "setting": "[1]", "value": 4.15, "unit": "pg/mL"}, {"measurement": "Eotaxin", "setting": "[1]", "value": "<3.23↓ pg/ml"}, {"measurement": "FGF-2", "setting": "[1]", "value": 34.19, "unit": "pg/mL"}, {"measurement": "FLT-3L", "setting": "[1]", "value": 0.62, "unit": "pg/mL"}, {"measurement": "Fractalkine", "setting": "[1]", "value": "<23.19↓ pg/ml"}, {"measurement": "G-CSF", "setting": "[1]", "value": 9.93, "unit": "pg/mL"}, {"measurement": "GM-CSF", "setting": "[1]", "value": 54.75, "unit": "pg/mL"}, {"measurement": "GROa", "setting": "[1]", "value": 29.97, "unit": "pg/mL"}, {"measurement": "IFNa2", "setting": "[1]", "value": "<4.43↓ pg/ml"}, {"measurement": "IFNg", "setting": "[1]", "value": 38.55, "unit": "pg/mL"}, {"measurement": "IL-1RA", "setting": "[1]", "value": 1.04, "unit": "pg/mL"}, {"measurement": "IL-1a", "setting": "[1]", "value": 19.36, "unit": "pg/mL"}, {"measurement": "IL-1b", "setting": "[1]", "value": "<18.72↓ pg/ml"}, {"measurement": "IL-2", "setting": "[1]", "value": 4.82, "unit": "pg/mL"}, {"measurement": "IL-3", "setting": "[1]", "value": "<0.48↓ pg/ml"}, {"measurement": "IL-4", "setting": "[1]", "value": "<0.31↓ pg/ml"}, {"measurement": "IL-5", "setting": "[1]", "value": "<0.24↓ pg/ml"}, {"measurement": "IL-6", "setting": "[1]", "value": "317 pg/mL and 317.05 pg/mL"}, {"measurement": "IL-7", "setting": "[1]", "value": "<0.33↓ pg/ml"}, {"measurement": "IL-8", "setting": "[1]", "value": 1247, "unit": "pg/mL"}, {"measurement": "IL-9", "setting": "[1]", "value": 5.08, "unit": "pg/mL"}, {"measurement": "IL-10", "setting": "[1]", "value": 42.25, "unit": "pg/mL"}, {"measurement": "IL-12 (p40)", "setting": "[1]", "value": 19.56, "unit": "pg/mL"}, {"measurement": "IL-12 (p70)", "setting": "[1]", "value": 3.39, "unit": "pg/mL"}, {"measurement": "IL-13", "setting": "[1]", "value": 7.95, "unit": "pg/mL"}, {"measurement": "IL-15", "setting": "[1]", "value": "<1.45↓ pg/ml"}, {"measurement": "IL-17A", "setting": "[1]", "value": 2.6, "unit": "pg/mL"}, {"measurement": "IL-17E/IL-25", "setting": "[1]", "value": "<20.59↓ pg/ml"}, {"measurement": "IL-17F", "setting": "[1]", "value": 51.91, "unit": "pg/mL"}, {"measurement": "IL-18", "setting": "[1]", "value": 0.56, "unit": "pg/mL"}, {"measurement": "IL-22", "setting": "[1]", "value": 24.29, "unit": "pg/mL"}, {"measurement": "IL-27", "setting": "[1]", "value": 84.77, "unit": "pg/mL"}, {"measurement": "IP-10", "setting": "[1]", "value": 114.68, "unit": "pg/mL"}, {"measurement": "M-GSF", "setting": "[1]", "value": "<23.75↓ pg/ml"}, {"measurement": "MCP-1", "setting": "[1]", "value": "505 pg/mL and 505.45 pg/mL"}, {"measurement": "MCP-3", "setting": "[1]", "value": 21.04, "unit": "pg/mL"}, {"measurement": "MDC", "setting": "[1]", "value": 968.96, "unit": "pg/mL"}, {"measurement": "MIG", "setting": "[1]", "value": 479.53, "unit": "pg/mL"}, {"measurement": "MIP-1a", "setting": "[1]", "value": "233 pg/mL and 233.56 pg/mL"}, {"measurement": "MIP-1b", "setting": "[1]", "value": 313.49, "unit": "pg/mL"}, {"measurement": "PDGF-AA", "setting": "[1]", "value": "<7.38↓ pg/ml"}, {"measurement": "PDGF-AB/BB", "setting": "[1]", "value": 119.45, "unit": "pg/mL"}, {"measurement": "RANTES", "setting": "[1]", "value": 12.31, "unit": "pg/mL"}, {"measurement": "TGF-a", "setting": "[1]", "value": 1.25, "unit": "pg/mL"}, {"measurement": "TNFa", "setting": "[1]", "value": 97.83, "unit": "pg/mL"}, {"measurement": "TNFb", "setting": "[1]", "value": 2.32, "unit": "pg/mL"}, {"measurement": "VEGFa", "setting": "[1]", "value": "<1.27↓ pg/ml"}, {"measurement": "sCD40L", "setting": "[1]", "value": 66.54, "unit": "pg/mL"}, {"measurement": "stability to proteolysis by yeast", "setting": "[2]; 40 mM sodium acetate pH 4.0, 37 °C", "value": "stable"}, {"measurement": "stability to proteolysis by yeast", "setting": "[2]; PBS pH 7.2, 37 °C, densitometry, immunoblotting", "value": "stable"}]}]}
